# According to article PMC7403315, “Cyclic peptide FXII inhibitor provides safe anticoagulation in a thrombosis model and in artificial lungs” (Nature Communications, 2020):
# Values joined by “and” are separate entries in the source; they are usually repeats but may differ in a detail not shown here. Equal entries are not always repeated. Starred links: 1 amine or outer side, 2 acyl side, 3 side chain; linkers in the order of their positions; H or OH if unused. Positions of bridges follow the written chain, without caps; N, C: chain ends. Non-standard residues stand in square brackets, D forms with d. Residues, ends and D or L forms follow the SMILES beside them. TATA = O=C(CC[*:1])N1CN(C(=O)CC[*:2])CN(C(=O)CC[*:3])C1; Phe(4-F) = N[C@@H](Cc1ccc(F)cc1)C(=O)O; β3hR = N=C(N)NCCC[C@H](N)CC(=O)O
# Legend:
# Test in all cases: Specificity profiling, residual protease activity
# Assay type in all cases: biochemical
# trypsin = biological target: T1, trypsin (Homo sapiens, UniProt P07477)
# T1 construct: purchased Molecular Innovations
# Method: (§1) Protease inhibition assays
# (§2) The inhibitory activity of peptides was determined by measuring the residual protease activity with a fluorogenic substrate. The assay was performed in buffer containing 10 mM Tris-Cl, pH […]
# (§3) 1% (v/v) DMSO in a volume of 150 µl. […]
# (§4) HFXIIAB) were used at final concentrations of 0.4 nM. The reaction was pipetted as follows: 50 µl of bicyclic peptide in assay buffer were added to 50 µl of FXIIa in assay buffer and incubated for 10 minutes at 25°C before 50 µl of 150 µM fluorogenic substrate in assay buffer were added to measure the residual protease activity with an Infinite M200Pro fluorescence plate reader (excitation at 368 nm, emission at 467 nm; Tecan) for a period of 30 minutes with a read every minute at 25°C. The Tecan software i-control (version 1.1) was used for data analysis. Stock solutions of 1 mM bicyclic peptide were prepared by either dissolving the unpurified cyclization reaction with water or by dissolving purified and lyophilized peptide in water. The bicyclic peptides were serially diluted two-fold using assay buffer. Sigmoidal curves were fitted to the data using the following dose response equation (1), wherein x = peptide concentration, y = % protease activity, and p = Hill slope. IC50 values were derived from the fitted curve.
# (§5) The inhibition constants (Ki) were calculated according to the equation of Cheng and Prusoff, Ki = IC50/(1+([S]0/Km), wherein IC50 is the functional strength of the inhibitor, [S]0 is the total substrate concentration, and Km is the Michaelis-Menten constant. […]
# (§6) For testing the specificity of the bicyclic peptides, the following final concentrations of human serine proteases were used: tPA (Molecular Innovations) 7.5 nM, uPA (Molecular Innovations) 1.5 nM, factor XIa (Innovative Research) 6 nM, plasma kallikrein (Innovative Research) 0.25 nM, thrombin (Molecular Innovations) 1 nM, plasmin (Molecular Innovations) 2.5 nM, trypsin (Molecular Innovations) 0.05 nM, factor VIIa (Haematologic Technologies) 50 nM, factor Xa […]
# (§7) (Haematologic Technologies) 6 nM, and activated protein C (APC) 5 nM. Two-fold dilutions of the peptide were prepared that ranged from 0.04 to 40 µM. The following fluorogenic substrates were used at a final concentration of 50 µM: Z-Phe-Arg-AMC (Bachem) for plasma kallikrein; Boc-Phe-Ser-Arg-AMC (Bachem) for factor XIa; Z-Gly-Gly-Arg-AMC (Bachem) for tPA, uPA, thrombin, and trypsin; H-D-Val-Leu-Lys-AMC (Bachem) for plasmin; and D-Phe-Pro-Arg-ANSNH-C4H9 (Haematologic Technologies) for FVIIa and FXa. For APC, the chromogenic substrate pyroGlu-Pro-Arg-pNA (S2366) was used at a concentration of 400 µM. […]
# factor Xa = biological target: T2, factor Xa (Homo sapiens, UniProt P00742)
# T2 construct: (Molecular Innovations) 0.05 nM, factor VIIa (Haematologic Technologies) 50 nM, factor Xa; purchased Haematologic Technologies
# Method: as §1, §2, §3, §4, §5, §6, §7
# factor XIa = biological target: T3, factor XIa (Homo sapiens, UniProt P03951)
# T3 construct: 1.5 nM, factor XIa (Innovative Research) 6 nM, plasma kallikrein (Innovative Research) 0.25; purchased Innovative Research
# Method: as §1, §2, §3, §4, §5, §6, §7
# plasmin = biological target: T4, plasmin (Homo sapiens, UniProt P00747)
# T4 construct: nM, thrombin (Molecular Innovations) 1 nM, plasmin (Molecular Innovations) 2.5 nM, trypsin; purchased Molecular Innovations
# Method: as §1, §2, §3, §4, §5, §6, §7
# [1] = inhibitor 39.0625 nM, 0.0390625 µM
# [2] = inhibitor 78.125 nM, 0.078125 µM
# [3] = inhibitor 156.25 nM, 0.15625 µM
# [4] = inhibitor 40000 nM (40 µM), 40 µM
# T2 sequence (P00742 235-488 limits assumed): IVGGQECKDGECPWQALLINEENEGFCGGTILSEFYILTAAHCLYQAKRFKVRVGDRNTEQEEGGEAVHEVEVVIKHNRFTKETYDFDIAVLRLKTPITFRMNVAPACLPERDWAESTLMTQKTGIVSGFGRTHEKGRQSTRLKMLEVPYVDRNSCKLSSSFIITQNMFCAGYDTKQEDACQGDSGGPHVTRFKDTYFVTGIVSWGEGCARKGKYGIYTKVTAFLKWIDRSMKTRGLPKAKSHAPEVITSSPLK
# T2 sequence (P00742 41-179 limits assumed): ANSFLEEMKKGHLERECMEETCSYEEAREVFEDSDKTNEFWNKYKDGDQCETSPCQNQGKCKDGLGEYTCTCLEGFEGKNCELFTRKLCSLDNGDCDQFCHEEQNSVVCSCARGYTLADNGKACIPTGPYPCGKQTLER
# T3 sequence (P03951 388-625 limits assumed): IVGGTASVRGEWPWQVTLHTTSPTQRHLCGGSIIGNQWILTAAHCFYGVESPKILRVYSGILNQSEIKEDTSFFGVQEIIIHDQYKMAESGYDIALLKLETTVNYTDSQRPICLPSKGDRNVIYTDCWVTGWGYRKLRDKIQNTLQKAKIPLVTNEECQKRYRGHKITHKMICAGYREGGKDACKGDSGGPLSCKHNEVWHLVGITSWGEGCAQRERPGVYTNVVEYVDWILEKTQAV
# T3 sequence (P03951 19-387 limits assumed): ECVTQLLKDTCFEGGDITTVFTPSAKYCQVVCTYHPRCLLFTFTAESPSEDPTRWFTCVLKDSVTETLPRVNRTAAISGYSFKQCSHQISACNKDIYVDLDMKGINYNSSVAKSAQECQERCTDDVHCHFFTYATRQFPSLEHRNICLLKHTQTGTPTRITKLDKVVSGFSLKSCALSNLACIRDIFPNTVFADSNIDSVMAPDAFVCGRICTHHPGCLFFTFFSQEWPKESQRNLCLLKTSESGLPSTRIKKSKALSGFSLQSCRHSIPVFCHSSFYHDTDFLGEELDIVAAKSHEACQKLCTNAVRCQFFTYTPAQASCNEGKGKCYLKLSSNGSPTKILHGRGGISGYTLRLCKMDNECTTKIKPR
# T4 sequence (P00747 581-810 limits assumed): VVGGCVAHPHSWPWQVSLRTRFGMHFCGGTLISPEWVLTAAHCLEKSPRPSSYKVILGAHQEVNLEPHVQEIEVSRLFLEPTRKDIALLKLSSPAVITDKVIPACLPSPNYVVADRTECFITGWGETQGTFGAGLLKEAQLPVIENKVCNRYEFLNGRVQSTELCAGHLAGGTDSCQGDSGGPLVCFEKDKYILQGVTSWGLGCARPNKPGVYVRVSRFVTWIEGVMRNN
# T4 sequence (P00747 97-580 limits assumed): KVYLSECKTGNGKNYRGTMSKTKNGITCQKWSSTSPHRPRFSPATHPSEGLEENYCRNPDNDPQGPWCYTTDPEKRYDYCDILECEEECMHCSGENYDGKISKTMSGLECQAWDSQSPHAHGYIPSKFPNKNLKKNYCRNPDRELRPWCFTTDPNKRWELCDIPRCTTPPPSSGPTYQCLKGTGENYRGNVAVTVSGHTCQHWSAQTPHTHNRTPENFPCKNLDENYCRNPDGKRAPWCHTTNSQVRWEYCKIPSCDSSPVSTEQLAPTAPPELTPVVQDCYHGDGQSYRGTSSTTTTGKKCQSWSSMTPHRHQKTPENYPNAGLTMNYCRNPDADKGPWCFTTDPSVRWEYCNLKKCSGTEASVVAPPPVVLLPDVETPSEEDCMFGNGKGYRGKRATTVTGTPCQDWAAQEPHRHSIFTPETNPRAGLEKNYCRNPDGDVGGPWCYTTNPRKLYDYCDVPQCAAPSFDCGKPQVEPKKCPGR
smiles,measurement,setting,value
CC(C)C[C@@H]1NC(=O)[C@H](CCC(N)=O)NC(=O)[C@H](Cc2c[nH]cn2)NC(=O)[C@@H]2CSCCC(=O)N3CN(CN(C3)C(=O)CCSC[C@H](NC(=O)[C@@H](CO)NC(=O)[C@H](N)CCCNC(=N)N)C(=O)N[C@@H](Cc3ccc(F)cc3)C(=O)N[C@@H](CCCNC(=N)N)C(=O)N[C@@H](CC(C)C)C(=O)N3CCC[C@H]3C(=O)N2)C(=O)CCSC[C@@H](C(N)=O)NC(=O)C[C@H](CCCNC(=N)N)NC1=O [FXII900] (H-[dR][dS]C[Phe(4-F)]RLPCHQL[β3hR]C-NH2; linker 3-8-13 via TATA),Ki,trypsin,1.46 µM
same,remaining activity at 0.0390625 µM,trypsin; inhibitor 39.0625 nM,99%
same,Residual activity of Trypsin,trypsin; [1],98.1138%
same,remaining activity at 0.078125 µM,trypsin; inhibitor 78.125 nM,100%
same,Residual activity of Trypsin,trypsin; [2],99.9393%
same,remaining activity at 0.15625 µM,trypsin; inhibitor 156.25 nM,91.6%
same,Residual activity of Trypsin,trypsin; [3],92.2203%
same,remaining activity at 0.3125 µM,trypsin; inhibitor 312.5 nM,86%
same,Residual activity of Trypsin,"trypsin; inhibitor 312.5 nM, 0.3125 µM",88.4651%
same,remaining activity at 0.625 µM,trypsin; inhibitor 625 nM,77.9%
same,Residual activity of Trypsin,"trypsin; inhibitor 625 nM, 0.625 µM",73.7094%
same,remaining activity at 1.25 µM,trypsin; inhibitor 1250 nM,64%
same,Residual activity of Trypsin,"trypsin; inhibitor 1250 nM, 1.25 µM",61.5181%
same,remaining activity at […],trypsin; inhibitor 2500 nM,47.5%
same,Residual activity of Trypsin,"trypsin; inhibitor 2500 nM, […]",46.5602%
same,remaining activity at 5 µM,trypsin; inhibitor 5000 nM,34.6%
same,Residual activity of Trypsin,"trypsin; inhibitor 5000 nM, 5 µM",30.2825%
same,remaining activity at 10 µM,trypsin; inhibitor 10000 nM,21%
same,Residual activity of Trypsin,"trypsin; inhibitor 10000 nM, 10 µM",19.2935%
same,remaining activity at 20 µM,trypsin; inhibitor 20000 nM,12.9%
same,Residual activity of Trypsin,"trypsin; inhibitor 20000 nM, 20 µM",12.2739%
same,remaining activity at 40 µM,trypsin; inhibitor 40000 nM (40 µM),9.2%
same,Residual activity of Trypsin,trypsin; [4],9.912% and 8.397%
same,Residual activity of FXa,factor Xa; [1],101.787%
same,remaining activity at 0.0390625 µM,"factor Xa; inhibitor 39.0625 nM, read-out: Residual activity of FXa",94.8%
same,Residual activity of FXa,factor Xa; [2],97.2913%
same,remaining activity at 0.078125 µM,"factor Xa; inhibitor 78.125 nM, read-out: Residual activity of FXa",93.4%
same,Residual activity of FXa,factor Xa; [3],100.804%
same,remaining activity at 0.15625 µM,"factor Xa; inhibitor 156.25 nM, read-out: Residual activity of FXa",97.6%
same,Residual activity of FXa,"factor Xa; inhibitor 312.5 nM, 0.3125 µM",95.4335%
same,remaining activity at 0.3125 µM,"factor Xa; inhibitor 312.5 nM, read-out: Residual activity of FXa",95.1%
same,Residual activity of FXa,"factor Xa; inhibitor 625 nM, 0.625 µM",101.673%
same,remaining activity at 0.625 µM,"factor Xa; inhibitor 625 nM, read-out: Residual activity of FXa",97.6%
same,Residual activity of FXa,"factor Xa; inhibitor 1250 nM, 1.25 µM",99.2096%
same,remaining activity at 1.25 µM,"factor Xa; inhibitor 1250 nM, read-out: Residual activity of FXa",99.4%
same,Residual activity of FXa,"factor Xa; inhibitor 2500 nM, […]",104.071%
same,remaining activity at […],"factor Xa; inhibitor 2500 nM, read-out: Residual activity of FXa",98.3%
same,Residual activity of FXa,"factor Xa; inhibitor 5000 nM, 5 µM",101.691%
same,remaining activity at 5 µM,"factor Xa; inhibitor 5000 nM, read-out: Residual activity of FXa",94.7%
same,Residual activity of FXa,"factor Xa; inhibitor 10000 nM, 10 µM",102.146%
same,remaining activity at 10 µM,"factor Xa; inhibitor 10000 nM, read-out: Residual activity of FXa",99.4%
same,Residual activity of FXa,"factor Xa; inhibitor 20000 nM, 20 µM",104.386%
same,remaining activity at 20 µM,"factor Xa; inhibitor 20000 nM, read-out: Residual activity of FXa",94.7%
same,Residual activity of FXa,factor Xa; [4],96.1187% and 97.9911%
same,remaining activity at 40 µM,"factor Xa; inhibitor 40000 nM (40 µM), read-out: Residual activity of FXa",97.1%
same,Ki,factor Xa; read-out: Ki FXa,> 40 µM
same,Residual activity of FXIa,factor XIa; [1],100.642%
same,remaining activity at 0.0390625 µM,"factor XIa; inhibitor 39.0625 nM, read-out: Residual activity of FXIa",96.6%
same,Residual activity of FXIa,factor XIa; [2],103.852%
same,remaining activity at 0.078125 µM,"factor XIa; inhibitor 78.125 nM, read-out: Residual activity of FXIa",93.8%
same,Residual activity of FXIa,factor XIa; [3],98.179%
same,remaining activity at 0.15625 µM,"factor XIa; inhibitor 156.25 nM, read-out: Residual activity of FXIa",94.7%
same,Residual activity of FXIa,"factor XIa; inhibitor 312.5 nM, 0.3125 µM",98.2463%
same,remaining activity at 0.3125 µM,"factor XIa; inhibitor 312.5 nM, read-out: Residual activity of FXIa",97.5%
same,Residual activity of FXIa,"factor XIa; inhibitor 625 nM, 0.625 µM",97.4314%
same,remaining activity at 0.625 µM,"factor XIa; inhibitor 625 nM, read-out: Residual activity of FXIa",94.9%
same,Residual activity of FXIa,"factor XIa; inhibitor 1250 nM, 1.25 µM",98.4364%
same,remaining activity at 1.25 µM,"factor XIa; inhibitor 1250 nM, read-out: Residual activity of FXIa",94.1%
same,Residual activity of FXIa,"factor XIa; inhibitor 2500 nM, […]",98.6547%
same,remaining activity at […],"factor XIa; inhibitor 2500 nM, read-out: Residual activity of FXIa",91.5%
same,Residual activity of FXIa,"factor XIa; inhibitor 5000 nM, 5 µM",98.6945%
same,remaining activity at 5 µM,"factor XIa; inhibitor 5000 nM, read-out: Residual activity of FXIa",98.9%
same,Residual activity of FXIa,"factor XIa; inhibitor 10000 nM, 10 µM",99.1545%
same,remaining activity at 10 µM,"factor XIa; inhibitor 10000 nM, read-out: Residual activity of FXIa",97.3%
same,Residual activity of FXIa,"factor XIa; inhibitor 20000 nM, 20 µM",95.8964%
same,remaining activity at 20 µM,"factor XIa; inhibitor 20000 nM, read-out: Residual activity of FXIa",96.3%
same,Residual activity of FXIa,factor XIa; [4],95.5908% and 94.7249%
same,remaining activity at 40 µM,"factor XIa; inhibitor 40000 nM (40 µM), read-out: Residual activity of FXIa",95.1%
same,Ki,factor XIa; read-out: Ki FXIa,> 40 µM
same,Ki,plasmin,> 40 µM
same,remaining activity at 0.0390625 µM,plasmin; inhibitor 39.0625 nM,101%
same,Residual activity of Plasmin,plasmin; [1],100% and 98.04%
same,remaining activity at 0.078125 µM,plasmin; inhibitor 78.125 nM,99.7%
same,Residual activity of Plasmin,plasmin; [2],92.966% and 98.2808%
same,remaining activity at 0.15625 µM,plasmin; inhibitor 156.25 nM,99.4%
same,Residual activity of Plasmin,plasmin; [3],100.413% and 98.2682%
same,remaining activity at 0.3125 µM,plasmin; inhibitor 312.5 nM,98.2%
same,Residual activity of Plasmin,"plasmin; inhibitor 312.5 nM, 0.3125 µM",95.1408% and 95.4545%
same,remaining activity at 0.625 µM,plasmin; inhibitor 625 nM,98.8%
same,Residual activity of Plasmin,"plasmin; inhibitor 625 nM, 0.625 µM",96.2495% and 97.8119%
same,remaining activity at 1.25 µM,plasmin; inhibitor 1250 nM,95.1%
same,Residual activity of Plasmin,"plasmin; inhibitor 1250 nM, 1.25 µM",99.629% and 97.1835%
same,remaining activity at […],plasmin; inhibitor 2500 nM,92%
same,remaining activity at 5 µM,plasmin; inhibitor 5000 nM,96%
same,Residual activity of Plasmin,"plasmin; inhibitor 5000 nM, 5 µM",97.8045% and 97.3192%
same,remaining activity at 10 µM,plasmin; inhibitor 10000 nM,93.7%
same,Residual activity of Plasmin,"plasmin; inhibitor 10000 nM, 10 µM",101.477% and 94.8276%
same,remaining activity at 20 µM,plasmin; inhibitor 20000 nM,87.5%
same,Residual activity of Plasmin,"plasmin; inhibitor 20000 nM, 20 µM",91.7224% and 90.5875%
same,remaining activity at 40 µM,plasmin; inhibitor 40000 nM (40 µM),86 ± 5%
same,Residual activity of Plasmin,plasmin; [4],82.6102% and 91.6986% and 84.2986%
